Entries after “also recorded” stand apart in the source; their conditions may differ.

Results on 2 molecules are retold here after US12246009B2, “Compositions and methods for treating neurodegenerative, myodegenerative, and lysosomal storage disorders” (GEORGETOWN UNIVERSITY, priority 2018, dated 2025).

The test concerns α-synuclein. Kind of test: α-synuclein ELISA in α-synuclein-transfected B35 cells. It is filed as cell-based, rat. The procedure:
Rat neuroblastoma B35 cells were grown in Dulbecco's Modified Eagle's Medium (DMEM) with 10% Fetal Bovine Serum (FBS) and 1% penicillin/streptomycin and incubated at 37° C. with 5% CO2. For the experiments, cells were transferred to 12-well plates (Cat. #150628, ThermoFisher, Waltham, MA) and grown to at least 70% confluence. Transient transfection was performed with 3 μg P301 L tau (Cat. #30145, Addgene) cDNA or 3 μg human α-synuclein cDNA using Fugene HD transfection reagent (Cat. #E2311, Promega, Madison WI) for 24 hours. Cells were treated with 1 mM, 100 μM, 10 μM, 1 μM, 0.1 μM, 0.01 μM, and 0.001 μM dissolved in DMSO or an equivalent 5 ul of DMSO for 5 hours. Cell culture media was collected and cells were harvested using sodium-tris, EDTA, NP-40 (STEN) buffer and centrifuged at 10,000×g for 20 minutes at 4′C and supernatant was collected. Cell viability was determined via lactate dehydrogenase assay (Cat. #88954, Thermofisher) and MTT assay (Cat. #V13154, Thermofisher). Protein was extracted by removing culture medium and adding 0.2 ml 1× STEN buffer (50 mM. Tris (pH 7.6), 150 mM NaCl, 2 mM EDTA, 0.2% NP-40, 0.2% BSA, 20 mM. PMSF and protease cocktail inhibitor) to cell layer and incubated on ice for 10 minutes. The bottom of the well was scraped and allowed to incubate on ice for an additional 10 minutes. Cell lysates were collected, stored at −80° C., and used for additional analyses.
To perform transient transfection of α-synuclein into the rat neuroblastoma B35 cells FuGene® HD Transfection Reagent (Promega Corporation, Madison, WI) was used. Cells were grown in 12-well dishes. […]
Human α-synuclein and p-tau ELISA were performed using 50 μl (1 μg/4 μl) of cell lysates detected with 50 μl primary antibody (3 h) and 100 μl anti-rabbit secondary antibody (30 min) at RT. α-Synuclein levels were measured using human specific ELISA (Invitrogen Inc., Carlsbad, CA) according to manufacturer's protocols. Tau was measured using specific tau at serine 396 according to manufacturer's protocol. […]
(An ELISA detects its analyte on a solid surface through an enzyme-linked reagent.)

For `Cc1cccc(-c2cc3nccc(Nc4cccc(O)c4)c3s2)c1` [BK40196], the level of alpha-synuclein entry (transfected B35 cells, 1 mM and 100 uM) is “significantly reduced”.

Regarding `Cc1cccc(-c2cc3nccc(N4CCOCC4)c3s2)c1` [BK40197, 4-(2-(m-Tolyl)thieno[3,2-b]pyridin-7-yl)morpholine], the α-synuclein level entry (α-synuclein-transfected B35 cells, 24 hour transfection) is reported as “does not reduce alpha-synuclein; also recorded: does not significantly reduce”.
